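Grown in 96-well plates, cells were treated for 48 hours with each compound at five concentrations. Insufficient inhibition: endpoint recorded as highest concentration tested. The concentration for 50% growth inhibition is given as GI50.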 The source made the active and inactive calls. Rule as the data show it: active = GI50 up to about 1.1 µM and inactive = higher.
Assays:
Assay in all cases: inhibition of tumour cell growth, NCI panel, 48 h
786-0 = test system: 786-0
A498 = test system: A498
ACHN = test system: ACHN
HCT-116 = test system: HCT-116
HCT-15 = test system: HCT-15
LOX IMVI = test system: LOX IMVI
M14 = test system: M14
OVCAR-5 = test system: OVCAR-5
RPMI-8226 = test system: RPMI-8226
SK-MEL-2 = test system: SK-MEL-2
SW-620 = test system: SW-620
TK-10 = test system: TK-10
UACC-257 = test system: UACC-257
NCI-H226 = test system: NCI-H226
RXF 393 = test system: RXF 393
SNB-75 = test system: SNB-75
UO-31 = test system: UO-31

Row | SMILES | GI50 (786-0) | GI50 (A498) | GI50 (ACHN) | GI50 (HCT-116) | GI50 (HCT-15) [µM] | GI50 (LOX IMVI) | GI50 (M14) | GI50 (OVCAR-5) | GI50 (RPMI-8226) | GI50 (SK-MEL-2) | GI50 (SW-620) | GI50 (TK-10) | GI50 (UACC-257) | GI50 (NCI-H226) | GI50 (RXF 393) | GI50 (SNB-75) | GI50 (UO-31)
1 | O=c1cc(/C=C/c2ccccc2)c2ccc(O/C(=C\c3ccccc3)c3nc4ccccc4c(=O)o3)cc2o1 | 44.3 µM (inactive) | 34.1 µM (inactive) | 18.5 µM (inactive) | 14.2 µM (inactive) | 30.3 | 31.1 µM (inactive) | 18.1 µM (inactive) | 44.9 µM (inactive) | 4.76 µM (inactive) | 25.6 µM (inactive) | 37.5 µM (inactive) | 51.4 µM (inactive) | 28.9 µM (inactive) | – | – | – | –
2 | CC1(C)C2=CCCC(=O)[C@@]2(C)CC[C@@H]1O | > 100 µM (inactive) | – | > 100 µM (inactive) | > 100 µM (inactive) | – | > 100 µM (inactive) | > 100 µM (inactive) | > 100 µM (inactive) | > 100 µM (inactive) | 5.97 µM (inactive) | > 100 µM (inactive) | > 100 µM (inactive) | > 100 µM (inactive) | > 100 µM (inactive) | > 100 µM (inactive) | > 100 µM (inactive) | > 100 µM (inactive)
3 | O=C1c2ccccc2C(=O)C2C1C1C(=O)c3ccccc3C(=O)C21 (stereo unspecified) | > 100 µM (inactive) | – | > 100 µM (inactive) | – | 8.69 | 33.3 µM (inactive) | > 100 µM (inactive) | 42.3 µM (inactive) | – | > 100 µM (inactive) | > 100 µM (inactive) | > 100 µM (inactive) | > 100 µM (inactive) | – | > 100 µM (inactive) | 57.4 µM (inactive) | > 100 µM (inactive)
4 | Cc1cc2c(c(C(N)=O)c1C)-c1cccc(F)c1C2=O | > 100 µM (inactive) | 45.5 µM (inactive) | > 100 µM (inactive) | 80.2 µM (inactive) | > 100 | > 100 µM (inactive) | > 100 µM (inactive) | > 100 µM (inactive) | > 100 µM (inactive) | > 100 µM (inactive) | > 100 µM (inactive) | > 100 µM (inactive) | > 100 µM (inactive) | – | – | 30.3 µM (inactive) | 40.9 µM (inactive)
5 | O=C(N/C(=C\c1ccccc1Cl)c1nc2ccccc2[nH]1)c1ccccc1 | 32.7 µM (inactive) | – | 30.5 µM (inactive) | – | 25.8 | – | 19.8 µM (inactive) | 30.8 µM (inactive) | – | 23.5 µM (inactive) | 27.5 µM (inactive) | 76.4 µM (inactive) | – | – | 27.4 µM (inactive) | – | 11.2 µM (inactive)
6 | Cc1ccc(-c2cc(=O)c3cc(C)c(C)c(C(=O)O)c3o2)cc1C | > 100 µM (inactive) | – | > 100 µM (inactive) | > 100 µM (inactive) | > 100 | > 100 µM (inactive) | > 100 µM (inactive) | > 100 µM (inactive) | > 100 µM (inactive) | > 100 µM (inactive) | > 100 µM (inactive) | > 100 µM (inactive) | > 100 µM (inactive) | > 100 µM (inactive) | > 100 µM (inactive) | > 100 µM (inactive) | > 100 µM (inactive)
7 | COC(=O)CCC(=O)Nc1cc(Cl)ccc1Cl | > 100 µM (inactive) | – | > 100 µM (inactive) | > 100 µM (inactive) | > 100 | > 100 µM (inactive) | > 100 µM (inactive) | > 100 µM (inactive) | > 100 µM (inactive) | > 100 µM (inactive) | > 100 µM (inactive) | > 10 µM (inactive) | > 100 µM (inactive) | > 100 µM (inactive) | 30.2 µM (inactive) | – | > 100 µM (inactive)
8 | CC1c2c(Cl)nc3ccccc3c2Oc2c1c(Cl)nc1ccccc21 | 49.1 µM (inactive) | > 100 µM (inactive) | 51.5 µM (inactive) | 74.6 µM (inactive) | – | > 100 µM (inactive) | – | > 100 µM (inactive) | 32.8 µM (inactive) | 64.6 µM (inactive) | 99.5 µM (inactive) | 47.3 µM (inactive) | > 100 µM (inactive) | – | 41.3 µM (inactive) | 56 µM (inactive) | 65 µM (inactive)
